Among the test systems are NCI/ADR-RES ovarian; CCRF-CEM leukemia; CAKI-1 renal; T-47D breast; OVCAR-5 ovarian; SNB-19 CNS; ACHN renal; LOX IMVI melanoma; SR leukemia; K-562 leukemia.
Experiment in all cases: inhibition of tumour cell growth, NCI panel, 48 h

The text below walks through data of PubChem BioAssay (NCI).

Values joined by “and” are separate entries in the source; they are usually repeats but may differ in a detail not shown here. Identical values can stand only once.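 All cell lines were grown in 96-well plates and treated with compound for 48 hours. GI50 is the concentration that inhibits growth by half. TGI marks complete inhibition of growth.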

`CC(CCC/C=C/CCCN(C)C(=N)N)CC(C)C1OC(=O)C(C)C(O)/C=C/C(C)C(O)C(C)C(O)C(C)C(O)CCCC(O)CC2(O)OC(CC(OC(=O)CC(=O)O)CC(O)CC(O)C(C)C(O)/C=C/C=C/C1C)CC(O)C2O` (stereo not given): the GI50 in the assay with NCI/ADR-RES ovarian was 5.99 µM and 15.9 µg/mL; in the assay on CCRF-CEM leukemia, 2.7 µM; with CAKI-1 renal, 2.01 µM and 7.96 µg/mL; with T-47D breast, 1.81 µM and 2.63 µg/mL; in the assay with OVCAR-5 ovarian it was 14.4 µM and 13.5 µg/mL; in the assay on SNB-19 CNS, 4.9 µM and 10.1 µg/mL. The GI50 with ACHN renal is 2 µM and 5.72 µg/mL; in the assay on LOX IMVI melanoma, 3.17 µM and 12 µg/mL; with SR leukemia it was 2.59 µM and 3.67 µg/mL; in the assay with K-562 leukemia it was 3.13 µM and 10.4 µg/mL. The TGI with NCI/ADR-RES ovarian is 20.4 µM and 34.3 µg/mL; in the assay on CCRF-CEM leukemia, 11 µM; in the assay on CAKI-1 renal, 5.24 µM and 17.7 µg/mL; in the assay on T-47D breast, 4.44 µM and 11.9 µg/mL; in the assay on OVCAR-5 ovarian, 29.9 µM and 26.1 µg/mL; with SNB-19 CNS, 17 µM and 21.8 µg/mL. In addition, the TGI with ACHN renal was 4.31 µM and 20.6 µg/mL; in the assay on LOX IMVI melanoma, 11.3 µM and 29 µg/mL; in the assay on SR leukemia it was 4.88 µM and 47 µg/mL; with K-562 leukemia, 7.16 µM and 75 µg/mL.

`CCCCCCn1c(=N)n(CC(O)COc2cccc(C)c2)c2ccccc21` (stereo not given): the GI50 in the assay on NCI/ADR-RES ovarian is 2820 nM; with CCRF-CEM leukemia, 2.36 µM; in the assay on CAKI-1 renal, 2890 nM; in the assay with T-47D breast, 2190 nM; with OVCAR-5 ovarian, 4.01 µM; with SNB-19 CNS, 4.94 µM. For the same compound, the GI50 in the assay with ACHN renal was 2020 nM; with LOX IMVI melanoma it was 1820 nM; with SR leukemia it was 1760 nM; in the assay with K-562 leukemia, 2070 nM. Also, the TGI with NCI/ADR-RES ovarian came to 8.89 µM; in the assay on CCRF-CEM leukemia, 7.14 µM; in the assay on CAKI-1 renal it was 10.6 µM; in the assay on T-47D breast, 4.86 µM; in the assay with OVCAR-5 ovarian, 15.1 µM; in the assay on SNB-19 CNS it was 20 µM. Also, the TGI with ACHN renal came to 4.25 µM; in the assay with LOX IMVI melanoma, 3.44 µM; in the assay on SR leukemia it was 5.84 µM; with K-562 leukemia, 5.28 µM.

As to `COc1ccc(/C=C2\CC(C)CC3C2=NN(C(C)=O)C3c2ccc(OC)c(OC)c2)cc1OC` (stereo not given), the GI50 is 12800 nM with NCI/ADR-RES ovarian; 20.8 µM in the assay with CCRF-CEM leukemia; 53300 nM in the assay on CAKI-1 renal; 2680 nM in the assay on T-47D breast; 17.5 µM with OVCAR-5 ovarian; 17.7 µM in the assay with SNB-19 CNS. The GI50 in the assay on ACHN renal was 17600 nM; in the assay on LOX IMVI melanoma it was 17700 nM; with SR leukemia, 22900 nM; in the assay with K-562 leukemia, 13000 nM. Besides, the TGI in the assay on NCI/ADR-RES ovarian was 43 µM; in the assay with CCRF-CEM leukemia, 68.8 µM; in the assay with CAKI-1 renal, more than 100 µM; in the assay with T-47D breast it was 9.42 µM; in the assay with OVCAR-5 ovarian it was 33.8 µM; with SNB-19 CNS, 39.4 µM. In addition, the TGI in the assay with ACHN renal is 46.5 µM; in the assay with LOX IMVI melanoma, 34.8 µM; with SR leukemia it was 74.4 µM; with K-562 leukemia, more than 100 µM.

Take `Nc1cc2[nH]c(=O)c3cc(Cl)ccc3c2cc1Cl`: the TGI in the assay on NCI/ADR-RES ovarian is 86.1 µM; with CCRF-CEM leukemia, more than 100 µM; with CAKI-1 renal, 40.8 µM; in the assay on T-47D breast, more than 100 µM; in the assay with OVCAR-5 ovarian it was more than 100 µM; with SNB-19 CNS, 37.2 µM. Moreover, the TGI in the assay on ACHN renal is 22.4 µM; in the assay with LOX IMVI melanoma, 53.6 µM; in the assay with SR leukemia, more than 100 µM; in the assay on K-562 leukemia, more than 100 µM.

With `COc1ccc(C2CC(c3ccc(OC)c(OC)c3)=NN2C(=O)c2cc(OC)c(OC)c(OC)c2)cc1` (stereo not given), the GI50 was 950 nM with NCI/ADR-RES ovarian; 4.29 µM in the assay on CCRF-CEM leukemia; 473 nM in the assay on CAKI-1 renal; 2300 nM in the assay with T-47D breast; 9.26 µM with OVCAR-5 ovarian; 4.67 µM in the assay on SNB-19 CNS. In addition, the GI50 was 2410 nM in the assay on ACHN renal, 2470 nM in the assay with LOX IMVI melanoma, 2070 nM in the assay with SR leukemia and 1200 nM in the assay on K-562 leukemia. Further, the TGI in the assay with NCI/ADR-RES ovarian was 6.02 µM; in the assay with CCRF-CEM leukemia it was more than 100 µM; in the assay on CAKI-1 renal it was more than 24.9 µM; in the assay on T-47D breast, more than 100 µM; in the assay on OVCAR-5 ovarian, more than 100 µM; with SNB-19 CNS it was more than 100 µM. Also, the TGI with ACHN renal, with LOX IMVI melanoma, in the assay on SR leukemia and in the assay on K-562 leukemia was more than 100 µM throughout.
